Holding throughout (format): biochemical
Experiment [1] has as its target T1, JAK1 (aa 850-1154, catalytic domain, GST-tag) (Homo sapiens, UniProt P23458).
T1 construct: JAK1 (aa 850-1154) and TYK2 (aa 871-1187) are expressed with an N-terminally fused GST-tag; GST (N); purchased Carna Biosciences, Inc; host or cells: baculovirus expression system
The experiment can be described thus: JAK kinase assay (HTRF, phosphorylation of TK substrate-biotin), JAK1. The note with it: HTRF assay, ATP at Km (7 μM); read-out: JAK1 kinase inhibitory activity (EC50 indicator). The essentials:
(§1)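 Catalytic-domain kinases phosphorylated 1 μM biotin-TK substrate at ATP Km (JAK1 7 μM, JAK2 4 μM, JAK3 2 μM, TYK2 13 μM) in Hepes pH 7.0 with DTT and MgCl2, for 20-30 min at RT; JAK1 and TYK2 also had 50 nM SEB. Detection was by HTRF (streptavidin-XL665/Cryptate antibody) overnight, giving EC50.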
In general terms: Time-resolved FRET reads energy transfer from a long-lived donor to a nearby acceptor.

The target in experiment [2] is T2, JAK2 (catalytic domain, His-tag) (Homo sapiens, UniProt O60674).
T2 construct: All four purified enzymes contain only the catalytic domain; His (N); purchased Carna Biosciences, Inc; host or cells: baculovirus expression system
As to the kind of experiment: JAK kinase assay (HTRF, phosphorylation of TK substrate-biotin), JAK2. To be noted: HTRF assay, ATP at Km (4 μM); read-out: JAK2 kinase inhibitory activity (EC50 indicator). The method in brief: as §1

Experiment [3] deals with T3, TYK2 (aa 871-1187, catalytic domain, GST-tag) (Homo sapiens, UniProt P29597).
T3 construct: JAK1 (aa 850-1154) and TYK2 (aa 871-1187) are expressed with an N-terminally fused GST-tag; GST (N); purchased Carna Biosciences, Inc; host or cells: baculovirus expression system
T3 sequence (P29597 871-1187): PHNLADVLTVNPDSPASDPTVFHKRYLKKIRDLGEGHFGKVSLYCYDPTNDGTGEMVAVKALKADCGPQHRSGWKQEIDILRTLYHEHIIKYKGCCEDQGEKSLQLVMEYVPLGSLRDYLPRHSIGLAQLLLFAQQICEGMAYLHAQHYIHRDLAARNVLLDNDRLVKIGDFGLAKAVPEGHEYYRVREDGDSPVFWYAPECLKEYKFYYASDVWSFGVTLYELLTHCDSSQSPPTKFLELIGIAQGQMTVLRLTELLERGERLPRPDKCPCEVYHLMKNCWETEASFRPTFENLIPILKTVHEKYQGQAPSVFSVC
As to the kind of experiment: JAK kinase assay (HTRF, phosphorylation of TK substrate-biotin), TYK2. The note with it: HTRF assay, ATP at Km (13 μM); read-out: TYK2 kinase inhibitory activity (EC50 indicator). The essentials: as §1

The target in experiment [4] is T4, JAK3 (catalytic domain, His-tag) (Homo sapiens, UniProt P52333).
T4 construct: All four purified enzymes contain only the catalytic domain; His (N); purchased Carna Biosciences, Inc; host or cells: baculovirus expression system
As to the kind of experiment: JAK kinase assay (HTRF, phosphorylation of TK substrate-biotin), JAK3. The note with it: HTRF assay, ATP at Km (2 μM); read-out: JAK3 kinase inhibitory activity (EC50 indicator). The method in brief: as §1

T4 sequence (P52333 822-1111 limits assumed): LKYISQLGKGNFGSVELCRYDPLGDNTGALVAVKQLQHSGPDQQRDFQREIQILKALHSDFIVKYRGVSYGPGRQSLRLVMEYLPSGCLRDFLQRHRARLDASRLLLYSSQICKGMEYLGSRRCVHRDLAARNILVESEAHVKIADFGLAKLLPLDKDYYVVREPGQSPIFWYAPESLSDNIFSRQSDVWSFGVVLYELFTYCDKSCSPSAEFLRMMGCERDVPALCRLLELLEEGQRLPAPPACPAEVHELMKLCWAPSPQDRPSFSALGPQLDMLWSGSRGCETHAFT
T1 sequence (P23458 850-1154): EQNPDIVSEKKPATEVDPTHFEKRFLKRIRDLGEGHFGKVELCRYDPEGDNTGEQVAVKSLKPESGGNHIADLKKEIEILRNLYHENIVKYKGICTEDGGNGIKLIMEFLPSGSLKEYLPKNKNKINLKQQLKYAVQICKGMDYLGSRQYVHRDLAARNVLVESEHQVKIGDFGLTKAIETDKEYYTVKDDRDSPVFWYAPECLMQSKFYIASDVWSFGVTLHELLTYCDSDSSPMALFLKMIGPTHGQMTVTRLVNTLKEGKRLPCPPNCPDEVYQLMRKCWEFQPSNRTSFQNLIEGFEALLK
T2 sequence (O60674 849-1124 limits assumed): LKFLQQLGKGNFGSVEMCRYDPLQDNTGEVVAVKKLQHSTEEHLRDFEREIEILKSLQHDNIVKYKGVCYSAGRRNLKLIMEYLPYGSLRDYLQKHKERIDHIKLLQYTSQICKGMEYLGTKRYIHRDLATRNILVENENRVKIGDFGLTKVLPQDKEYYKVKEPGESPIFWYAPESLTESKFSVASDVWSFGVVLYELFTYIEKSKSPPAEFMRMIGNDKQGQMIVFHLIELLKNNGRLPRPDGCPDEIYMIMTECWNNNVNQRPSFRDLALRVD

Take `COc1cnc2[nH]ccc2c1N1CCN(C(=O)c2cc3ccccc3s2)C2(CC2)C1` [Example 284, Benzo[b]thiophen-2-yl-[7-(5-methoxy-1H-pyrrolo[2,3-b]pyridin-4-yl)-4,7-diaza-spiro[2.5]oct-4-yl]-methanone]: the EC50 in experiment [1], in experiment [2], in experiment [3] and in experiment [4] was over 500 nM each time.

Regarding `COc1cnc2[nH]ccc2c1N1CCN(C(=O)c2cnccn2)C2(CC2)C1` [Example 285, [7-(5-Methoxy-1H-pyrrolo[2,3-b]pyridin-4-yl)-4,7-diaza-spiro[2.5]oct-4-yl]-pyrazin-2-yl-methanone], the EC50 – broadly, the concentration that produces a half-maximal response – was over 500 nM in experiment [1], 100 to 500 nM in experiment [2], over 500 nM in experiment [3] and 100 to 500 nM in experiment [4].

With `COc1cnc2[nH]ccc2c1N1CCN(C(=O)c2ccc(C#N)cc2)C2(CC2)C1` [Example 286, 4-[7-(5-Methoxy-1H-pyrrolo[2,3-b]pyridin-4-yl)-4,7-diaza-spiro[2.5]octane-4-carbonyl]-benzonitrile], the EC50 in experiment [1], in experiment [2], in experiment [3] and in experiment [4] was over 500 nM each time.

`COc1cnc2[nH]ccc2c1N1CCN(C(=O)c2cccc(C#N)c2)C2(CC2)C1` [Example 287, 3-[7-(5-Methoxy-1H-pyrrolo[2,3-b]pyridin-4-yl)-4,7-diaza-spiro[2.5]octane-4-carbonyl]-benzonitrile]: the EC50 was over 500 nM in experiment [1], 100 to 500 nM in experiment [2], over 500 nM in experiment [3] and 100 to 500 nM in experiment [4].

`COc1cnc2[nH]ccc2c1N1CCN(C(=O)c2cc3ccccc3[nH]2)C2(CC2)C1` [Example 288, (1H-Indol-2-yl)-[7-(5-methoxy-1H-pyrrolo[2,3-b]pyridin-4-yl)-4,7-diaza-spiro[2.5]oct-4-yl]-methanone]: the EC50 was over 500 nM in experiment [1], over 500 nM in experiment [2], over 500 nM in experiment [3] and 100 to 500 nM in experiment [4].

Consider `COc1cnc2[nH]ccc2c1N1CCN(C(=O)c2csc3ccccc23)C2(CC2)C1` [Example 289, Benzo[b]thiophen-3-yl-[7-(5-methoxy-1H-pyrrolo[2,3-b]pyridin-4-yl)-4,7-diaza-spiro[2.5]oct-4-yl]-methanone], for which the EC50 was 100 to 500 nM in experiment [1], 100 to 500 nM in experiment [2], over 500 nM in experiment [3] and 100 to 500 nM in experiment [4].

Regarding `COc1cnc2[nH]ccc2c1N1CCN(C(=O)c2ccc(-c3ccccc3)s2)C2(CC2)C1` [Example 290, [7-(5-Methoxy-1H-pyrrolo[2,3-b]pyridin-4-yl)-4,7-diaza-spiro[2.5]oct-4-yl]-(5-phenyl-thiophen-2-yl)-methanone], the EC50 in experiment [1], in experiment [2], in experiment [3] and in experiment [4] was over 500 nM in each case.

For `COc1cnc2[nH]ccc2c1N1CCN(C(=O)c2cc3cc(C#N)ccc3[nH]2)C2(CC2)C1` [Example 291, 2-[7-(5-Methoxy-1H-pyrrolo[2,3-b]pyridin-4-yl)-4,7-diaza-spiro[2.5]octane-4-carbonyl]-1H-indole-5-carbonitrile], the EC50 was over 500 nM in experiment [1], over 500 nM in experiment [2], over 500 nM in experiment [3] and 100 to 500 nM in experiment [4].

On to `COc1cnc2[nH]ccc2c1N1CCN(C(=O)c2ccc(C#N)c(F)c2)C2(CC2)C1` [Example 292, 2-Fluoro-4-[7-(5-methoxy-1H-pyrrolo[2,3-b]pyridin-4-yl)-4,7-diaza-spiro[2.5]octane-4-carbonyl]-benzonitrile], for which the EC50 in experiment [1] is over 500 nM; in experiment [2], 100 to 500 nM; in experiment [3] it was over 500 nM; in experiment [4] it was 100 to 500 nM.

Regarding `COc1cnc2[nH]ccc2c1N1CCN(C(=O)CCCC#N)C2(CC2)C1` [Example 293, 5-[7-(5-Methoxy-1H-pyrrolo[2,3-b]pyridin-4-yl)-4,7-diaza-spiro[2.5]oct-4-yl]-5-oxo-pentanenitrile], the EC50 in experiment [1] was under 100 nM; in experiment [2] it was under 100 nM; in experiment [3], 100 to 500 nM; in experiment [4], under 100 nM.

In the case of `COc1cnc2[nH]ccc2c1N1CCN(C(=O)Cc2cccc(C#N)c2)C2(CC2)C1` [Example 294, 3-{2-[7-(5-Methoxy-1H-pyrrolo[2,3-b]pyridin-4-yl)-4,7-diaza-spiro[2.5]oct-4-yl]-2-oxo-ethyl}-benzonitrile], the EC50 in experiment [1] was 100 to 500 nM; in experiment [2] it was 100 to 500 nM; in experiment [3], over 500 nM; in experiment [4], 100 to 500 nM.

On to `COc1cnc2[nH]ccc2c1N1CCN(C(=O)Cc2ccc(C#N)cc2)C2(CC2)C1` [Example 295, 4-{2-[7-(5-Methoxy-1H-pyrrolo[2,3-b]pyridin-4-yl)-4,7-diaza-spiro[2.5]oct-4-yl]-2-oxo-ethyl}-benzonitrile], for which the EC50 is 100 to 500 nM in experiment [1], under 100 nM in experiment [2], over 500 nM in experiment [3] and under 100 nM in experiment [4].

As for `Cc1c(C(=O)N2CCN(c3ncnc4[nH]ccc34)CC23CC3)sc2ccccc12` [Example 296, (3-Methyl-benzo[b]thiophen-2-yl)-[7-(7H-pyrrolo[2,3-d]pyrimidin-4-yl)-4,7-diaza-spiro[2.5]oct-4-yl]-methanone], the EC50 in experiment [1] was under 100 nM; in experiment [2], under 100 nM; in experiment [3] it was under 100 nM; in experiment [4] it was 100 to 500 nM.

With `Cc1ccc2sc(C(=O)N3CCN(c4ncnc5[nH]ccc45)CC34CC4)cc2c1` [Example 297, (5-Methyl-benzo[b]thiophen-2-yl)-[7-(7H-pyrrolo[2,3-d]pyrimidin-4-yl)-4,7-diaza-spiro[2.5]oct-4-yl]-methanone], the EC50 in experiment [1] was under 100 nM; in experiment [2] it was under 100 nM; in experiment [3], 100 to 500 nM; in experiment [4], 100 to 500 nM.

As to `N#CCCCC(=O)N1CCN(c2ncnc3[nH]ccc23)CC12CC2` [Example 298, 5-Oxo-5-[7-(7H-pyrrolo[2,3-d]pyrimidin-4-yl)-4,7-diaza-spiro[2.5]oct-4-yl]-pentanenitrile], the EC50 in experiment [1] was under 100 nM; in experiment [2] it was under 100 nM; in experiment [3] it was 100 to 500 nM; in experiment [4], under 100 nM.

Consider `N#Cc1ccccc1C(=O)N1CCN(c2ncnc3[nH]ccc23)CC12CC2` [Example 299, 2-[7-(7H-Pyrrolo[2,3-d]pyrimidin-4-yl)-4,7-diaza-spiro[2.5]octane-4-carbonyl]-benzonitrile], for which the EC50 in experiment [1] is under 100 nM; in experiment [2], under 100 nM; in experiment [3], 100 to 500 nM; in experiment [4] it was 100 to 500 nM.

Turning to `N#CCc1ccccc1C(=O)N1CCN(c2ncnc3[nH]ccc23)CC12CC2` [Example 300, {2-[7-(7H-Pyrrolo[2,3-d]pyrimidin-4-yl)-4,7-diaza-spiro[2.5]octane-4-carbonyl]-phenyl}-acetonitrile], the EC50 in experiment [1] was under 100 nM; in experiment [2], under 100 nM; in experiment [3], 100 to 500 nM; in experiment [4], 100 to 500 nM.

Regarding `N#Cc1ccc2c(C(=O)N3CCN(c4ncnc5[nH]ccc45)CC34CC4)n[nH]c2c1` [Example 301, 3-[7-(7H-Pyrrolo[2,3-d]pyrimidin-4-yl)-4,7-diaza-spiro[2.5]octane-4-carbonyl]-1H-indazole-6-carbonitrile], the EC50 was under 100 nM in experiment [1], under 100 nM in experiment [2], 100 to 500 nM in experiment [3] and under 100 nM in experiment [4].

`Nc1nc(N2CCN(C(=O)c3cnccn3)C3(CC3)C2)c2cc[nH]c2n1` [Example 302, [7-(2-Amino-7H-pyrrolo[2,3-d]pyrimidin-4-yl)-4,7-diaza-spiro[2.5]oct-4-yl]-pyrazin-2-yl-methanone]: the EC50 was 100 to 500 nM in experiment [1], under 100 nM in experiment [2], over 500 nM in experiment [3] and 100 to 500 nM in experiment [4].

In the case of `N#Cc1ccc(C(=O)N2CCN(c3nc(N)nc4[nH]ccc34)CC23CC3)cc1` [Example 303, 4-[7-(2-Amino-7H-pyrrolo[2,3-d]pyrimidin-4-yl)-4,7-diaza-spiro[2.5]octane-4-carbonyl]-benzonitrile], the EC50 in experiment [1] was under 100 nM; in experiment [2] it was under 100 nM; in experiment [3], over 500 nM; in experiment [4], 100 to 500 nM.

Consider `N#Cc1cccc(C(=O)N2CCN(c3nc(N)nc4[nH]ccc34)CC23CC3)c1` [Example 304, 3-[7-(2-Amino-7H-pyrrolo[2,3-d]pyrimidin-4-yl)-4,7-diaza-spiro[2.5]octane-4-carbonyl]-benzonitrile], for which the EC50 was under 100 nM in experiment [1], under 100 nM in experiment [2], 100 to 500 nM in experiment [3] and under 100 nM in experiment [4].

Values taken from patent US9346809B2 (LEO PHARMA A/S, priority 2009, dated 2016).
